In PubChem BioAssay AID1963875 (Molecular Pharmacology Branch, DTP, NCI, 2024):

Test system: KRAS-mutant PDC complex spheroid viability
Assay: Anticancer human tumor 186277-243-T-J2-PDC patient-derived colon adenocarcinoma cell line growth inhibition [KRAS2]
Settings: for IC50: curve of first compound; for viability, T/C: stronger effect = lower value; active = viability on the fitted dose curve at most 10% of control; inactive = the rest
Description: Multicellular complex tumor spheroid response to RAS pathway inhibitors in combination with a targeted agents in patient-derived cell lines with oncogenic KRAS variants from multiple cancer types
A high-throughput screen of multi-cell type tumor spheroids was designed to identify active combinations of targeted small molecules and KRAS pathway inhibitors. Complex spheroids include a stromal component modeled by human endothelial cells (HUVEC) and fibroblasts modeled by human mesenchymal stem cells (MSCs). The concentration ranges selected for each drug and investigational agent were based upon clinically achievable concentrations if the clinical Cmax of the agent was known.
Compounds. The drugs and investigational agents: BI-3406 (NSC825286), BAY-293 (NSC824723), batoprotafib (TNO155; NSC825523), sotorasib (AMG 510; NSC818433), MRTX1257 (NSC819558), elimusertib (BAY 1895344; NSC800525), molibresib (GSK525762; NSC774829), temuterkib (LY3214996; NSC803410), venetoclax (NSC766270), alisertib (NSC759677), olaparib (NSC753686), talazoparib (NSC767125), erdafitinib (NSC781556), ipatasertib (NSC767898), cabozantinib (NSC761068), nintedanib (NSC756659), abemaciclib (NSC768073), docetaxel (NSC628503), trametinib (NSC758246), and sapanisertib (NSC764658) were obtained from the National Cancer Institute (NCI) Developmental Therapeutics Program Chemical Repository. The FDA-approved anticancer drug set is available from the Developmental Therapeutics Program. […] The stock solutions were prepared in dimethyl sulfoxide (DMSO, Sigma-Aldrich, St. Louis, MO, cat. D2650) at 800-fold the tested concentration and stored at -70 degrees C prior to their use. All drugs and investigational agents were tested over a range starting from a high concentration at or near the clinical Cmax and decreasing in half-log increments. If the clinical Cmax for an agent had not been determined, the highest concentration tested was 10 microM.
Cell Culture. All cells were maintained in an incubator at 37 degrees C and 5% CO2 with 95% humidity. The PDC lines were cultured according to standard operating procedures established by the NCI PDMR (https://pdmr.cancer.gov/sops/default.htm). Briefly, all PDCs were thawed and cultured in Matrigel-coated flasks prepared with a working solution of 1X Ham's F-12 nutrient mix, without supplementation (Invitrogen, Waltham, MA, cat. 11765054), 100 U/mL penicillin-streptomycin (Invitrogen, cat. 15140122), and 2.5% Matrigel (Corning Inc., Corning, NY, cat. 354248) for the first three passages. All PDCs were cultured in complete DMEM/F-12 media containing advanced DMEM/F-12 (Invitrogen, cat. 12634028), 4.9% defined fetal bovine serum, heat inactivated (HyClone Laboratories Inc., Logan, UT, cat. SH30070.03HI), 389 ng/mL hydrocortisone (Sigma-Aldrich, cat. H4001), 9.7 ng/mL human EGF recombinant protein (Invitrogen, cat. PHG0313), 23.4 microg/mL adenine (Sigma-Aldrich, cat. A2786), 97.3 U/mL penicillin-streptomycin (Invitrogen, cat. 15140122), 1.9 mM L-glutamine (Invitrogen, cat. 25030081), and 9.7 microM Y-27632 dihydrochloride (Tocris Bioscience, Bristol, United Kingdom, cat. 1254). The PDCs were cultured in complete DMEM/F12 media without 9.7 microM Y-27632 dihydrochloride for at least two passages prior to the screen. The established cell line HOP-62 was cultured in RPMI 1640 medium, HEPES (Invitrogen, cat. 22400105) with 10% defined fetal bovine serum (HyClone Laboratories Inc., cat. SH30070.03) and 2 mM L-glutamine (Invitrogen, cat. 25030081). The pooled donor HUVEC were cultured in endothelial cell growth medium 2 (PromoCell, Heidelberg, Germany, cat. C-22011) and the hMSC were cultured in mesenchymal stem cell growth medium 2 (PromoCell, cat. C-28009). For all experiments, HUVEC and hMSC were used at passages </=5, while the malignant cell lines were used at passages </=15. […]

[1] = second compound 0.1 µM, first compound 0.0316 µM
[2] = second compound 0.1 µM, first compound 0.1 µM
[3] = second compound 0.1 µM, first compound 0.316 µM
[4] = second compound 0.1 µM, first compound 1 µM
[5] = second compound 0.1 µM, first compound 3.16 µM
[6] = second compound 0.1 µM, first compound 10 µM
[7] = second compound 0.316 µM, first compound 0.0316 µM
[8] = second compound 0.316 µM, first compound 0.1 µM
[9] = second compound 0.316 µM, first compound 0.316 µM
[10] = second compound 0.316 µM, first compound 1 µM
[11] = second compound 0.316 µM, first compound 3.16 µM
[12] = second compound 0.316 µM, first compound 10 µM
[13] = second compound 1 µM, first compound 0.0316 µM
[14] = second compound 1 µM, first compound 0.1 µM
[15] = second compound 1 µM, first compound 0.316 µM
[16] = second compound 1 µM, first compound 1 µM
[17] = second compound 1 µM, first compound 3.16 µM
[18] = second compound 1 µM, first compound 10 µM
[19] = second compound 3.16 µM, first compound 0.0316 µM
[20] = second compound 3.16 µM, first compound 0.1 µM
[21] = second compound 3.16 µM, first compound 0.316 µM
[22] = second compound 3.16 µM, first compound 1 µM
[23] = second compound 3.16 µM, first compound 3.16 µM
[24] = second compound 3.16 µM, first compound 10 µM
[25] = second compound 10 µM, first compound 0.0316 µM
[26] = second compound 10 µM, first compound 0.1 µM
[27] = second compound 10 µM, first compound 0.316 µM
[28] = second compound 10 µM, first compound 1 µM
[29] = second compound 10 µM, first compound 3.16 µM
[30] = second compound 10 µM, first compound 10 µM
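Throughout, for viability, T/C: viability read after seven days of compound exposure; 100% = DMSO vehicle-treated spheroids so lower means less viable.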

COc1cc2nccc(Oc3ccc(NC(=O)C4(C(=O)Nc5ccc(F)cc5)CC4)cc3)c2cc1OC + CC1OCC2(CCN(c3cnc(Sc4ccnc(N)c4Cl)c(N)n3)CC2)C1N
1980 nM: IC50 (second compound 0.1 µM)
2030 nM: IC50 (second compound 0.316 µM)
active: viability, T/C [6] 8.67% | viability, T/C [12] 9.03% | viability, T/C [17] 9.37% | viability, T/C [18] 6.62% | viability, T/C [23] 5.99% | viability, T/C [24] 4.64% | viability, T/C [29] 3.73% | viability, T/C [30] 3.26%
821 nM: IC50 (second compound 3.16 µM)
inactive: viability, T/C [1] 106% | viability, T/C [2] 111% | viability, T/C [3] 105% | viability, T/C [4] 103% | viability, T/C [5] 13.7% | viability, T/C [7] 115% | viability, T/C [8] 98.8% | viability, T/C [9] 109% | viability, T/C [10] 107% | viability, T/C [11] 14.6% | viability, T/C [13] 104% | viability, T/C [14] 112% | viability, T/C [15] 104% | viability, T/C [16] 85.2% | viability, T/C [19] 94% | viability, T/C [20] 92.8% | viability, T/C [21] 83.7% | viability, T/C [22] 43.6% | viability, T/C [25] 63.5% | viability, T/C [26] 60.7% | viability, T/C [27] 48.5% | viability, T/C [28] 21.8%
284 nM: IC50 (second compound 10 µM)
1710 nM: IC50 (second compound 1 µM)

CC1(C)CCC(CN2CCN(c3ccc(C(=O)NS(=O)(=O)c4ccc(NCC5CCOCC5)c([N+](=O)[O-])c4)c(Oc4cnc5[nH]ccc5c4)c3)CC2)=C(c2ccc(Cl)cc2)C1 + COc1cc2nc(C)nc(NC(C)c3cc(N)cc(C(F)(F)F)c3)c2cc1OC1CCOC1
2190 nM: IC50 (second compound 0.1 µM)
2070 nM: IC50 (second compound 0.316 µM) | IC50 (second compound 3.16 µM)
inactive: viability, T/C [1] 102% | viability, T/C [2] 99.2% | viability, T/C [3] 108% | viability, T/C [4] 99.7% | viability, T/C [5] 26.4% | viability, T/C [7] 92.5% | viability, T/C [8] 107% | viability, T/C [9] 104% | viability, T/C [10] 103% | viability, T/C [11] 19.9% | viability, T/C [13] 104% | viability, T/C [14] 108% | viability, T/C [15] 110% | viability, T/C [16] 100% | viability, T/C [17] 15.7% | viability, T/C [19] 106% | viability, T/C [20] 103% | viability, T/C [21] 111% | viability, T/C [22] 115% | viability, T/C [23] 15.6% | viability, T/C [25] 77.3% | viability, T/C [26] 91.8% | viability, T/C [27] 53.2% | viability, T/C [28] 33.6%
472 nM: IC50 (second compound 10 µM)
active: viability, T/C [6] 0.68% | viability, T/C [12] 0.6% | viability, T/C [18] 1.19% | viability, T/C [24] 1.05% | viability, T/C [29] 5.28% | viability, T/C [30] 0.64%
1980 nM: IC50 (second compound 1 µM)

CC(C)n1nc(-c2ccc3oc(N)nc3c2)c2c(N)ncnc21 + C=CC(=O)N1CCN(c2nc(OCC3CCCN3C)nc3c2CCN(c2cccc4cccc(C)c24)C3)CC1CC#N
active: viability, T/C [14] 8.12% | viability, T/C (second compound 3.16 µM, first compound 0.000316 µM) 0.26% | viability, T/C (second compound 3.16 µM, first compound 0.001 µM) 0.19% | viability, T/C (second compound 3.16 µM, first compound 0.00316 µM) 0.24% | viability, T/C (second compound 3.16 µM, first compound 0.01 µM) 0.14% | viability, T/C [19] 0.12% | viability, T/C [20] 0.16%
< 0.316 nM: IC50 (second compound 3.16 µM)
10.1 nM: IC50 (second compound 0.1 µM)
13.6 nM: IC50 (second compound 0.316 µM)
7.13 nM: IC50 (second compound 0.0316 µM)
inactive: viability, T/C (second compound 0.0316 µM, first compound 0.000316 µM) 89.7% | viability, T/C (second compound 0.0316 µM, first compound 0.001 µM) 78.9% | viability, T/C (second compound 0.0316 µM, first compound 0.00316 µM) 63.5% | viability, T/C (second compound 0.0316 µM, first compound 0.01 µM) 44.2% | viability, T/C (second compound 0.0316 µM, first compound 0.0316 µM) 28.2% | viability, T/C (second compound 0.0316 µM, first compound 0.1 µM) 16.9% | viability, T/C (second compound 0.1 µM, first compound 0.000316 µM) 88% | viability, T/C (second compound 0.1 µM, first compound 0.001 µM) 101% | viability, T/C (second compound 0.1 µM, first compound 0.00316 µM) 77.8% | viability, T/C (second compound 0.1 µM, first compound 0.01 µM) 51.2% | viability, T/C [1] 27.4% | viability, T/C [2] 21.2% | viability, T/C (second compound 0.316 µM, first compound 0.000316 µM) 106% | viability, T/C (second compound 0.316 µM, first compound 0.001 µM) 111% | viability, T/C (second compound 0.316 µM, first compound 0.00316 µM) 97.1% | viability, T/C (second compound 0.316 µM, first compound 0.01 µM) 58.2% | viability, T/C [7] 27% | viability, T/C [8] 16.4% | viability, T/C (second compound 1 µM, first compound 0.000316 µM) 102% | viability, T/C (second compound 1 µM, first compound 0.001 µM) 96.1% | viability, T/C (second compound 1 µM, first compound 0.00316 µM) 70.8% | viability, T/C (second compound 1 µM, first compound 0.01 µM) 38.4% | viability, T/C [13] 12.8%
6.5 nM: IC50 (second compound 1 µM)
